Test results as given in article doi:10.1101/2020.07.01.182642v1 (biorxiv, 2020).

Experiments:
Details in all cases: binder
[1] = molecular target: CSNK2A1 (Homo sapiens, UniProt P68400)
[2] = molecular target: CAMK1D (Homo sapiens, UniProt Q8IU85)
[3] = molecular target: STK10 (Homo sapiens, UniProt O94804)
[4] = molecular target: STK38L (Homo sapiens, UniProt Q9Y2H1)
[5] = molecular target: MAP2K2 (Homo sapiens, UniProt P36507)
[6] = molecular target: CSNK2A2 (Homo sapiens, UniProt P19784)
[7] = molecular target: T1, GAK (Homo sapiens, UniProt O14976)
T1 sequence (O14976 1-1311): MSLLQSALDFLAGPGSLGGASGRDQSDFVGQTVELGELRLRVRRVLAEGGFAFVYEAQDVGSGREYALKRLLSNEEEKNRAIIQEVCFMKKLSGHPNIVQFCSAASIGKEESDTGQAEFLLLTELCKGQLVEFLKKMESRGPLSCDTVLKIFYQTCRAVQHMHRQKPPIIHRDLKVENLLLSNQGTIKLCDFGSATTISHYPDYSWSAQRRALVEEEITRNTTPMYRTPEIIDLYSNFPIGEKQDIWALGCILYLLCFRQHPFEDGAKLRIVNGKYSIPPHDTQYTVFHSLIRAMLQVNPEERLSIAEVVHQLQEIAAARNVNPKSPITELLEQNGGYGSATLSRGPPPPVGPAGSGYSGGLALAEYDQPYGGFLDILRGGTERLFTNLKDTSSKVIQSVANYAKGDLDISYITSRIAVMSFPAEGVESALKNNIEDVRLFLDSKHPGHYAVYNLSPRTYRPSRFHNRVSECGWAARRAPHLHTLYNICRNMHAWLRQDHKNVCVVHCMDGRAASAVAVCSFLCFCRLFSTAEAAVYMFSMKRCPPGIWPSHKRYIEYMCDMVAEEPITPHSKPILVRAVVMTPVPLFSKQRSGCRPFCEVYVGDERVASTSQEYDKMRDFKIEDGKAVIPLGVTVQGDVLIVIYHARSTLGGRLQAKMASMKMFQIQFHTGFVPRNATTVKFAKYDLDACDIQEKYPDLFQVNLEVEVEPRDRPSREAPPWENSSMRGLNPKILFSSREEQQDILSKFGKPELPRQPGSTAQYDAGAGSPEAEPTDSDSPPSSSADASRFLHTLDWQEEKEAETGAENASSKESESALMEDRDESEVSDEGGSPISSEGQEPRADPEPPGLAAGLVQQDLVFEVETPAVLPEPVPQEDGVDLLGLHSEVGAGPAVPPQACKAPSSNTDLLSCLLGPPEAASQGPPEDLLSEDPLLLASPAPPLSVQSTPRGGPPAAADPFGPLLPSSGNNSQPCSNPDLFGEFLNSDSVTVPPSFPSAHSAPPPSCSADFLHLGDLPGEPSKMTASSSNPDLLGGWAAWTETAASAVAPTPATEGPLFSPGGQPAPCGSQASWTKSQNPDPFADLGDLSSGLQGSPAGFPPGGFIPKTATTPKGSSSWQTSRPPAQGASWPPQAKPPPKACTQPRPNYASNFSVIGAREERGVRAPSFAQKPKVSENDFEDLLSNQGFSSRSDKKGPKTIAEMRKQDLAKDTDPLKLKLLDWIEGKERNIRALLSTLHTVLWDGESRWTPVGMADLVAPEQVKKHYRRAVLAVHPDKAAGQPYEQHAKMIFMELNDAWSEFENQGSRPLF

[8] = molecular target: PKN1 (Homo sapiens, UniProt Q16512)
[9] = molecular target: RPS6KA1 (Homo sapiens, UniProt Q15418)
[10] = molecular target: VRK2 (Homo sapiens, UniProt Q86Y07)
[11] = molecular target: FES (Homo sapiens, UniProt P07332)
[12] = molecular target: CAMK1G (Homo sapiens, UniProt Q96NX5)
[13] = molecular target: SRPK3 (Homo sapiens, UniProt Q9UPE1)
[14] = molecular target: T2, MYLK4 (Homo sapiens, UniProt Q86YV6)
T2 sequence (Q86YV6 1-388): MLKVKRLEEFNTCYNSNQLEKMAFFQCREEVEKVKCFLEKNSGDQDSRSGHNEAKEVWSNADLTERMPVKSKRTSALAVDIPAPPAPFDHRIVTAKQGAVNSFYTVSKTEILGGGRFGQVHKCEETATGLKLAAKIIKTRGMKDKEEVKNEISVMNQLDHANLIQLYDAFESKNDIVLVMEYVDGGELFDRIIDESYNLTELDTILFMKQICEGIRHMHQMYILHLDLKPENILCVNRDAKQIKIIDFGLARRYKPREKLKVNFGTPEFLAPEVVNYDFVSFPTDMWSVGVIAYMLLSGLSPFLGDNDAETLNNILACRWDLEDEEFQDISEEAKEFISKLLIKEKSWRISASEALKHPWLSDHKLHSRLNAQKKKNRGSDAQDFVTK

[15] = molecular target: CDK16 (Homo sapiens, UniProt Q00536)

Sequence of STK38L (Q9Y2H1 whole entry): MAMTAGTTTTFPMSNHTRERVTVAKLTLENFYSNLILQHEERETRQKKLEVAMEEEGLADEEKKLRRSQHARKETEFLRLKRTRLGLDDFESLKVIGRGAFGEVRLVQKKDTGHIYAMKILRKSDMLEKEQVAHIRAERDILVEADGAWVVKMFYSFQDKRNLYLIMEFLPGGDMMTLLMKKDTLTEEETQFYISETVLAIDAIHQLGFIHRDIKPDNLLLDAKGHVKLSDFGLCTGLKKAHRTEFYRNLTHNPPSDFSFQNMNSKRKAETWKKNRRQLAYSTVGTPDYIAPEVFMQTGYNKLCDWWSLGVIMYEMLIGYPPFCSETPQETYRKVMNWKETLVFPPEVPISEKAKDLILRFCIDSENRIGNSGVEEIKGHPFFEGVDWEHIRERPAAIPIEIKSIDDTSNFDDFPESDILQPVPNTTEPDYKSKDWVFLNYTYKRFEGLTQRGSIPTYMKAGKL
Sequence of CAMK1G (Q96NX5 whole entry): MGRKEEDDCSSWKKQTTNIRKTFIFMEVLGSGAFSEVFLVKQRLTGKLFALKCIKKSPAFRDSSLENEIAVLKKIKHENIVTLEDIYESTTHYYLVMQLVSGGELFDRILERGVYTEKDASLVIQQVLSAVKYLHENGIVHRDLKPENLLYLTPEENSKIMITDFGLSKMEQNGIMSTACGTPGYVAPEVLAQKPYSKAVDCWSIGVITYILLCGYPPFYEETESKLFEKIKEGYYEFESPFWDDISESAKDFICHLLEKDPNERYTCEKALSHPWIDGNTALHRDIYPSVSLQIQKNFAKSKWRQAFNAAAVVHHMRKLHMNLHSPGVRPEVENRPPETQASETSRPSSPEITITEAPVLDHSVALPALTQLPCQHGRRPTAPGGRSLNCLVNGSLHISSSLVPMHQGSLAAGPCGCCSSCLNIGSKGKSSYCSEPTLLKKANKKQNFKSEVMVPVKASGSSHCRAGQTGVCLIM
Sequence of RPS6KA1 (Q15418 whole entry): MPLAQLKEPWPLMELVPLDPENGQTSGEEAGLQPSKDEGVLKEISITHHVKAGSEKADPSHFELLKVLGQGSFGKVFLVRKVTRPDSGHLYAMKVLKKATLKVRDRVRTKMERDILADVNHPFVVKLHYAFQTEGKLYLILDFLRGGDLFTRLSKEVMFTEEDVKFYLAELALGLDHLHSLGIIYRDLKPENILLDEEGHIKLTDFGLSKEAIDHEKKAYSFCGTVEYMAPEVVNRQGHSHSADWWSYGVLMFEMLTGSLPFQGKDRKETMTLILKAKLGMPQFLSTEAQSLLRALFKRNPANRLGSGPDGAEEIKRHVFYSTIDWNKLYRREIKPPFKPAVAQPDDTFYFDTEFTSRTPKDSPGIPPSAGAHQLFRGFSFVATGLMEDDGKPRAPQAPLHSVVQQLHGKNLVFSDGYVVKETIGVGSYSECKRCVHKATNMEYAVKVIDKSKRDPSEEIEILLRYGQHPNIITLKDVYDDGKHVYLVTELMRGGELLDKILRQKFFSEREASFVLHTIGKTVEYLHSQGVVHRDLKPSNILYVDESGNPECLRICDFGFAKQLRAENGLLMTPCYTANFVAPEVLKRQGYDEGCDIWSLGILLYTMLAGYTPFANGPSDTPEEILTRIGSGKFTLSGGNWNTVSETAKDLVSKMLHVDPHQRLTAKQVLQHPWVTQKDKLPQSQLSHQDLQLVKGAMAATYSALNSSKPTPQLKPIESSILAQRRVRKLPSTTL
Sequence of FES (P07332 whole entry): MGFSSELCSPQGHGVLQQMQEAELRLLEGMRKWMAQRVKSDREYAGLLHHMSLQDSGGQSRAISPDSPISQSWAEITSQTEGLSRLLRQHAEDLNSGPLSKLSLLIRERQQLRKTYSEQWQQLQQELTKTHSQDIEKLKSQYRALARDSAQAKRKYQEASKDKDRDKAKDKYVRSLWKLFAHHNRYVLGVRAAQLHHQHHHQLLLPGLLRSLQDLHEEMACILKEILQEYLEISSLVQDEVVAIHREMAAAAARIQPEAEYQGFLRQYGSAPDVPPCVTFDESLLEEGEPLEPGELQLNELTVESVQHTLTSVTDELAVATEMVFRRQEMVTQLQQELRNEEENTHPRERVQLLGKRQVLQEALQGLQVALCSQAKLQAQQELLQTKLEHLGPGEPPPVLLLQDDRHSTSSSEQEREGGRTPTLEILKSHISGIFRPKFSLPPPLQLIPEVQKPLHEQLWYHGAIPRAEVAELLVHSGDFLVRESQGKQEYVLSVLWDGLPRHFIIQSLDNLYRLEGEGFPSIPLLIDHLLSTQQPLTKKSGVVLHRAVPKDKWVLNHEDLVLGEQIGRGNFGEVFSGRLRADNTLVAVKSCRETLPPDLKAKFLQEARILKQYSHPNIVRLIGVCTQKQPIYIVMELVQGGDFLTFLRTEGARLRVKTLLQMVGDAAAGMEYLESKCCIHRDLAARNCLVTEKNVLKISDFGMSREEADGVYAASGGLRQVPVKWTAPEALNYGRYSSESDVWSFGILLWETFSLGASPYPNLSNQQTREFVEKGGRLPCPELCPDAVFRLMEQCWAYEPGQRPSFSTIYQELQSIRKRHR
Sequence of VRK2 (Q86Y07 whole entry): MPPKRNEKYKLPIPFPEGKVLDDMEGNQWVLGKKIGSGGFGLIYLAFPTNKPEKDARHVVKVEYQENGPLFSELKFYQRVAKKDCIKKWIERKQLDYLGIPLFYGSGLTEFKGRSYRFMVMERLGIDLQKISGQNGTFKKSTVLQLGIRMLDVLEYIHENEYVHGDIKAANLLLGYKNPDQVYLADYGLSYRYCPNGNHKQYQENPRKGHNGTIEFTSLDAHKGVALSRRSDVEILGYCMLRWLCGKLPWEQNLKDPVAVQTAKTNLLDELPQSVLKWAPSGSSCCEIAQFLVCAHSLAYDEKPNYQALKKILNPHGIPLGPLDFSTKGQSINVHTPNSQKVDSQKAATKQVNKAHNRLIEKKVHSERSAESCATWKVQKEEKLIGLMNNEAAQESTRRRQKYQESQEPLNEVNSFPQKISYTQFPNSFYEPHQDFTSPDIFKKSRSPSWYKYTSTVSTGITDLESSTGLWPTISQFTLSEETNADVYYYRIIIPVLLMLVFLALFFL
Sequence of CAMK1D (Q8IU85 whole entry): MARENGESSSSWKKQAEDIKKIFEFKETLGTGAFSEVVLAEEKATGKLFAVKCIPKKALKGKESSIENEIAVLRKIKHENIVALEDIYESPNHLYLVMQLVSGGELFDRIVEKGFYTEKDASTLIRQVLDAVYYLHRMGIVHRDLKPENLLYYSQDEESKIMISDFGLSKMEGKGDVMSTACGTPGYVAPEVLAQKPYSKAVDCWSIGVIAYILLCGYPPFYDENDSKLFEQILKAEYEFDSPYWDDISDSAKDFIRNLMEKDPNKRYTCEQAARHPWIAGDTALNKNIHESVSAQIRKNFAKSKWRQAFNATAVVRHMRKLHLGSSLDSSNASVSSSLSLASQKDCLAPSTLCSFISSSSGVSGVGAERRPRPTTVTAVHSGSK
Sequence of MAP2K2 (P36507 whole entry): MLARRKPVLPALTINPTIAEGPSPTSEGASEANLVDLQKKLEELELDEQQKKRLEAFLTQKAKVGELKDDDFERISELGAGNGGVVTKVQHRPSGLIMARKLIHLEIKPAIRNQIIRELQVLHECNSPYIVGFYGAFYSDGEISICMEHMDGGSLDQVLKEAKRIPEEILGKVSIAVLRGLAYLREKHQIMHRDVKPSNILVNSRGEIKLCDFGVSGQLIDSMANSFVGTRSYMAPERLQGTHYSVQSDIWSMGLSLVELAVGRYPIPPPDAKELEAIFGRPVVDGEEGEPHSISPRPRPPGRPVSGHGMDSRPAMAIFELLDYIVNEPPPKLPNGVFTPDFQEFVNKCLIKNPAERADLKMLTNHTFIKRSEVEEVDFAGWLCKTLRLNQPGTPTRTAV
Sequence of CSNK2A1 (P68400 whole entry): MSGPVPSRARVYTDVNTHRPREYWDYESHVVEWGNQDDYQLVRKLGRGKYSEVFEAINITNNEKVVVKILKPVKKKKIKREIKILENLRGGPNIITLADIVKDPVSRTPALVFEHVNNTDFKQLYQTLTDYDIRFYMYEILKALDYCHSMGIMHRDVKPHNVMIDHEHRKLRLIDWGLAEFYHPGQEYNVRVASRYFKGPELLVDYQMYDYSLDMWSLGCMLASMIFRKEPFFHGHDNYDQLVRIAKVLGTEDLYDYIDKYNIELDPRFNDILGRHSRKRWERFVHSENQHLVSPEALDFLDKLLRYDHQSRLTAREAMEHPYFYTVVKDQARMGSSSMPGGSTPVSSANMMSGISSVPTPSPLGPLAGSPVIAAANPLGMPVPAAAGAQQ
Sequence of SRPK3 (Q9UPE1 whole entry): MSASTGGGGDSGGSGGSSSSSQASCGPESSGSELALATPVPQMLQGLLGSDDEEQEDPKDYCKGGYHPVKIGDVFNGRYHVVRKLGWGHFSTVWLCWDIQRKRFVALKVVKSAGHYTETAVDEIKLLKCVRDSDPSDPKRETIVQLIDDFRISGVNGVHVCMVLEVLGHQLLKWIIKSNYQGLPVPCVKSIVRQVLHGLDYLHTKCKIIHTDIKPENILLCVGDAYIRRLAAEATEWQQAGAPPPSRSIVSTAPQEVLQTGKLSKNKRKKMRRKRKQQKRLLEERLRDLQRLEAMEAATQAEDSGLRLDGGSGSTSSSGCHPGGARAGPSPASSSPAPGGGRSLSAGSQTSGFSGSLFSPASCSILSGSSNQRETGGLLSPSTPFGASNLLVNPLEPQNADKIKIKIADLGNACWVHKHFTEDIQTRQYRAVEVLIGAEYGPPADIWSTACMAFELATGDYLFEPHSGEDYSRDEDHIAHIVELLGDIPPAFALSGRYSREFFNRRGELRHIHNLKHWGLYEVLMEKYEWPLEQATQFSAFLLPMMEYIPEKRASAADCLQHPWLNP

Nc1nccc(-c2ccc3noc(-c4ccc(Cl)cc4)c3c2)n1 [compound 4, K00972]
ΔTm inhibitor 4 [1]: 0.2 °C | ΔTm inhibitor 4 [2]: 0.2 °C | ΔTm inhibitor 4 [3]: 1.9 °C | ΔTm inhibitor 4 [4]: 0.9 °C | ΔTm inhibitor 4 [5]: 0.1 °C | ΔTm inhibitor 4 [6]: 0.9 °C | ΔTm inhibitor 4 [7]: 3.3 °C | ΔTm inhibitor 4 [8]: 0.4 °C | ΔTm inhibitor 4 [9]: 0.6 °C | ΔTm inhibitor 4 [10]: 0.0 °C | ΔTm inhibitor 4 [11]: 0.3 °C | ΔTm inhibitor 4 [12]: 0.3 °C | ΔTm inhibitor 4 [13]: 0.2 °C | ΔTm inhibitor 4 [14]: 3.9 °C | ΔTm inhibitor 4 [15]: 1.2 °C

CCN1/C(=C/C(C)=O)Sc2ccc(OC)cc21 [compound 2, TG003]
ΔTm inhibitor 2 [1]: 2.6 °C | ΔTm inhibitor 2 [2]: 0.0 °C | ΔTm inhibitor 2 [3]: 0.8 °C | ΔTm inhibitor 2 [4]: 0.3 °C | ΔTm inhibitor 2 [5]: 0.5 °C | ΔTm inhibitor 2 [6]: 2.6 °C | ΔTm inhibitor 2 [7]: 0.2 °C | ΔTm inhibitor 2 [8]: -0.5 °C | ΔTm inhibitor 2 [9]: 0.6 °C | ΔTm inhibitor 2 [10]: 0.2 °C | ΔTm inhibitor 2 [11]: -0.1 °C | ΔTm inhibitor 2 [12]: -0.1 °C | ΔTm inhibitor 2 [13]: 0.0 °C | ΔTm inhibitor 2 [14]: 0.9 °C | ΔTm inhibitor 2 [15]: -0.4 °C

CC(=O)c1cccc(-c2cnc3ccc(NCC4CC4)nn23)c1 [compound 1, K00135]
ΔTm inhibitor 1 [1]: 3.3 °C | ΔTm inhibitor 1 [2]: 0.6 °C | ΔTm inhibitor 1 [3]: 3.3 °C | ΔTm inhibitor 1 [4]: 0.4 °C | ΔTm inhibitor 1 [5]: 2 °C | ΔTm inhibitor 1 [6]: 3.3 °C | ΔTm inhibitor 1 [7]: 7.3 °C | ΔTm inhibitor 1 [8]: 1.7 °C | ΔTm inhibitor 1 [9]: 5.2 °C | ΔTm inhibitor 1 [10]: 1.5 °C | ΔTm inhibitor 1 [11]: 0.6 °C | ΔTm inhibitor 1 [12]: 0.6 °C | ΔTm inhibitor 1 [13]: 0.4 °C | ΔTm inhibitor 1 [14]: 5.8 °C | ΔTm inhibitor 1 [15]: 0.5 °C
